This passage reports Activity and Kd results from ChEMBL document CHEMBL1157695, “Identification of a novel ligand binding motif in the transthyretin channel” (Bioorg Med Chem, 2010).

Calls of active or inactive are those of the source. The calls are words filed in the database; no cut-off is given here.

For assay [1], the target named is Transthyretin (Homo sapiens) (UniProt P02766). Put plainly: Inhibition of wild type human TTR aggregation expressed in Escherichia coli assessed as fibril formation at 20 uM after 72 hrs relative by spectrofluorimetry. Details: scale not given: the % may be the effect or the level left.
The species named for assay [2] is Homo sapiens. As to the kind of experiment: Binding affinity to human recombinant TTR T119M mutant denominated hormone binding site expressed in Escherichia coli at 100 nM by fluorescence anisotropy.
The target in the next assay is Transthyretin (Homo sapiens, UniProt P02766, V50M). Put plainly: Binding affinity to human recombinant TTR V30M mutant denominated hormone binding site expressed in Escherichia coli by FRET analysis.
In assay [3] the target is Transthyretin (Homo sapiens) (UniProt P02766). Put plainly: Binding affinity to wild type human TTR denominated hormone binding site expressed in Escherichia coli at 100 nM by fluorescence anisotropy. A general note: Fluorescence polarisation rises when a labelled molecule tumbles more slowly, as on binding a larger partner.
Assay [4] in a line: Binding affinity to human recombinant TTR T119M mutant denominated hormone binding site expressed in Escherichia coli by FRET analysis.
The test system of assay [5] is Transthyretin (Homo sapiens), P02766 [V50M]. Put plainly: Binding affinity to human recombinant TTR V30M mutant denominated hormone binding site expressed in Escherichia coli at 100 nM by fluorescence anisotropy.
A short description of assay [6]: Binding affinity to human recombinant TTR T119M mutant denominated hormone binding site expressed in Escherichia coli assessed as dissociation constant for second ligand binding event by isothermal direct titrimetric assay.
Assay [7] is described as follows: Binding affinity to human recombinant TTR T119M mutant denominated hormone binding site expressed in Escherichia coli assessed as dissociation constant for first ligand binding event by isothermal direct titrimetric assay.
Assay [8] deals with Transthyretin (Homo sapiens), P02766 [V50M]. As to the kind of experiment: Binding affinity to human recombinant TTR V30M mutant denominated hormone binding site expressed in Escherichia coli at 10 uM by fluorescence anisotropy.
Assay [9] deals with Transthyretin (Homo sapiens) (UniProt P02766). Put plainly: Binding affinity to wild type human TTR denominated hormone binding site expressed in Escherichia coli at 10 uM by fluorescence anisotropy.
Assay [10] is filed under the species Homo sapiens. Put plainly: Binding affinity to human recombinant TTR T119M mutant denominated hormone binding site expressed in Escherichia coli at 10 uM by fluorescence anisotropy.
The nature of assay [11]: Binding affinity to human recombinant TTR T119M mutant denominated hormone binding site expressed in Escherichia coli by isothermal direct titrimetric assay.

Turning to `O=C(O)Cc1ccccc1Nc1c(Cl)cccc1Cl`, the Activity in assay [1] was found to be 33%.

One may read the Kd as a measure of binding affinity in units of concentration. `Nc1cccc2c(S(=O)(=O)O)cccc12`: the outcome (in the assay filed under Homo sapiens [2]; in assay [3]; in assay [5]) was Active. Also, the Kd stood at 86 µM on Transthyretin and 93 µM in assay [4]. Moreover, the Activity in assay [1] worked out at 100%.

Consider `O=S(=O)(O)c1cccc2cccc(Nc3ccccc3)c12`, for which the Kd in assay [6] turned out to be 6.7 µM; in assay [7], 3.2 µM; in assay [11], 4.5 µM. Besides, the Activity in assay [1] was 44%. Further, the result (in assay [8]; in assay [9]; in the assay filed under Homo sapiens [10]) was Active.
